How the values were obtained:
[1] = system: human CCK-2 receptor transfected A431 cells; experiment: Biodistribution studies in CD1 nu/nu mice bearing CCK-2 receptor positive and mock A431 tumours; assay type: in vivo
Protocol: PP-F11N has been investigated according to the CD1 nu/nu mice model. […] FIG. 2 illustrates the biodistribution of PP-F11, PP-F11N and oxidized PP-F11 ox (oxidized PP-F11) after 4 hours in the athymic CD1 nu/nu mice model. Tumour positive: with human CCK-2 receptor transfected A431 cells on one side of the mouse; tumor negative: CCK-2 receptor negative A431 cells on the other side of the mouse. The effect of the higher tumor uptake by the exchange of methionine with norleucine is specifically apparent with compounds having the DGlu6 sequence, different from compounds having a sequence with DGLn6 which is referred to as PP-F10.
CD1 nu/nu mice were injected with 5×10^6 A431 cells. CCK-2 receptor positive A431 cells' were injected into one flank and mock cells on the other as an unspecific control. The tumors reach a weight of about 80 to 120 mg after about 10 days. 150-200 kBq (5 pmol) of the radiolabelled peptides were injected into the tail vein. Mice were killed by CO2 asphyxiation after defined time points post injection. The organs were dissected, weighted and the activity was measured. The % injected activity per gram (% i.A./g) was calculated. The animal experiments were approved by the local animal welfare committee and performed according to national regulations.

[2] = Stability of 177Lu-labelled mini-gastrin analogues in human serum/plasma, metabolites by HPLC; assay type: in vitro ADME; conditions: human serum, radio-labelled with 177Lu, compared with PP-F11, PP-F10N and PP-F10
Protocol: 12 MBq of the radiolabelled compound was incubated in 2 mL fresh human plasma. A 40 μL probe was taken after 0, 1, 2, 18, 24, 48 and 72 h and added 200 μL (50% Methanol and 50% Acetonitril) in a Mini-UniPrep Filter. The solution is filtered after vortexing. 40 μL of the filtered solution is analyzed by HPLC.

[3] = biodistribution after 4 hours, athymic CD1 nu/nu mice

**Q.** Which “accumulation in the kidneys” value [1, 3] does the source give for `CCCC[C@H](NC(=O)[C@H](Cc1c[nH]c2ccccc12)NC(=O)CNC(=O)[C@H](Cc1ccc(O)cc1)NC(=O)[C@H](C)NC(=O)[C@@H](CCC(=O)O)NC(=O)[C@@H](CCC(=O)O)NC(=O)[C@@H](CCC(=O)O)NC(=O)[C@@H](CCC(=O)O)NC(=O)[C@@H](CCC(=O)O)NC(=O)[C@@H](CCC(=O)O)NC(=O)CN1CCN(CC(=O)O)CCN(CC(=O)O)CCN(CC(=O)O)CC1)C(=O)N[C@@H](CC(=O)O)C(=O)N[C@@H](Cc1ccccc1)C(N)=O` [PP-F11N] here?
**A.** very few

**Q.** And the tumor-noise ratio [1, 3]?
**A.** very favorable

**Q.** What about the tumor uptake ([1]; biodistribution after 4 hours, athymic CD1 nu/nu mice, CCK-2 receptor positive A431 tumour) of the same compound?
**A.** significant higher

**Q.** And the tumor-to-kidney ([1]; mouse, in vivo)?
**A.** best

**Q.** And the pharmacologic stability [2]?
**A.** highest pharmacologic stability of all probands

— patent US11623014B2, “Mini-gastrin analogue, in particular for use in CCK2 receptor positive tumour diagnosis and/or treatment” (Paul Scherrer Institut, priority 2013, dated 2023)
